Earlier results in patent publication US6638535B2, “Modified release formulations containing a hypnotic agent” (Synthon BV, priority 2000, dated 2003).

Settings: in therapy, after ingestion of the commercial immediate release tablet

Cc1ccc(-c2nc3ccc(C)cn3c2CC(=O)N(C)C)cc1 [zolpidem, N,N,6-trimethyl-2-(4-methylphenyl)-imidazo[1,2-s]pyridine-3-acetamide]
duration of action (action lasts): 4 to 6 h | onset of action (starts acting) ('or even earlier'): 15 to 30 min
